Data taken from PubChem BioAssay (NCI).
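Interpolation was linear, between the two tested concentrations surrounding the appropriate level; five concentrations were tested over 48 hours in 96-well plates. TGI: concentration producing complete growth inhibition.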

What was measured:
Test in all cases: NCI anticancer screen, dose series, 48 h
786-0 renal = test system: 786-0 renal
A498 renal = test system: A498 renal
A549 NSCLC = test system: A549 NSCLC
ACHN renal = test system: ACHN renal
CAKI-1 renal = test system: CAKI-1 renal
CCRF-CEM leukemia = test system: CCRF-CEM leukemia
COLO 205 colon = test system: COLO 205 colon
DLD-1 colon = test system: DLD-1 colon
DMS 114 small cell lung = test system: DMS 114 small cell lung
DMS 273 small cell lung = test system: DMS 273 small cell lung
EKVX NSCLC = test system: EKVX NSCLC
HCT-116 colon = test system: HCT-116 colon
HCT-15 colon = test system: HCT-15 colon
HL-60(TB) leukemia = test system: HL-60(TB) leukemia
HOP-62 NSCLC = test system: HOP-62 NSCLC
HOP-92 NSCLC = test system: HOP-92 NSCLC
HT29 colon = test system: HT29 colon
IGROV1 ovarian = test system: IGROV1 ovarian
K-562 leukemia = test system: K-562 leukemia
KM12 colon = test system: KM12 colon
KM20L2 colon = test system: KM20L2 colon
LOX IMVI melanoma = test system: LOX IMVI melanoma
LXFL 529 NSCLC = test system: LXFL 529 NSCLC
M14 melanoma = test system: M14 melanoma
M19-MEL melanoma = test system: M19-MEL melanoma
MALME-3M melanoma = test system: MALME-3M melanoma
MOLT-4 leukemia = test system: MOLT-4 leukemia
NCI-H226 lung = test system: NCI-H226 lung
NCI-H23 lung = test system: NCI-H23 lung
NCI-H460 lung = test system: NCI-H460 lung
NCI-H522 lung = test system: NCI-H522 lung
OVCAR-3 ovarian = test system: OVCAR-3 ovarian
OVCAR-4 ovarian = test system: OVCAR-4 ovarian
OVCAR-5 ovarian = test system: OVCAR-5 ovarian
OVCAR-8 ovarian = test system: OVCAR-8 ovarian
RXF 393 renal = test system: RXF 393 renal
RXF-631 renal = test system: RXF-631 renal
SF-268 CNS = test system: SF-268 CNS
SF-295 CNS = test system: SF-295 CNS
SF-539 CNS = test system: SF-539 CNS
SK-MEL-2 melanoma = test system: SK-MEL-2 melanoma
SK-MEL-28 melanoma = test system: SK-MEL-28 melanoma
SK-MEL-5 melanoma = test system: SK-MEL-5 melanoma
SK-OV-3 ovarian = test system: SK-OV-3 ovarian
SN12C renal = test system: SN12C renal
SNB-19 CNS = test system: SNB-19 CNS
SNB-75 CNS = test system: SNB-75 CNS
SNB-78 CNS = test system: SNB-78 CNS
SR leukemia = test system: SR leukemia
SW-620 colon = test system: SW-620 colon
TK-10 renal = test system: TK-10 renal
U251 CNS = test system: U251 CNS
UACC-257 melanoma = test system: UACC-257 melanoma
UACC-62 melanoma = test system: UACC-62 melanoma
UO-31 renal = test system: UO-31 renal
HCC-2998 colon = test system: HCC-2998 colon
HOP-18 NSCLC = test system: HOP-18 NSCLC
RPMI-8226 leukemia = test system: RPMI-8226 leukemia
XF 498 CNS = test system: XF 498 CNS

**Q.** Which TGI (786-0 renal) does the source give for `CCOC(=O)C1C(=O)C(C(=O)OCC)C(c2ccccc2)N(C)C1c1ccccc1` (stereo not drawn) here?
**A.** > 100 µM

**Q.** And the TGI (A498 renal)?
**A.** > 100 µM

**Q.** What about the TGI (A549 NSCLC) of the same compound?
**A.** > 100 µM

**Q.** What about the TGI (ACHN renal) of the same compound?
**A.** > 100 µM

**Q.** What about the TGI (CAKI-1 renal) of the same compound?
**A.** > 100 µM

**Q.** And the TGI (CCRF-CEM leukemia)?
**A.** > 100 µM

**Q.** And the TGI (COLO 205 colon)?
**A.** > 100 µM

**Q.** What about the TGI (DLD-1 colon) of the same compound?
**A.** > 100 µM

**Q.** And the TGI (DMS 114 small cell lung)?
**A.** > 100 µM

**Q.** And the TGI (DMS 273 small cell lung)?
**A.** > 100 µM

**Q.** And the TGI (EKVX NSCLC)?
**A.** > 100 µM

**Q.** And the TGI (HCT-116 colon)?
**A.** > 100 µM

**Q.** What about the TGI (HCT-15 colon) of the same compound?
**A.** > 100 µM

**Q.** And the TGI (HL-60(TB) leukemia)?
**A.** > 100 µM

**Q.** And the TGI (HOP-62 NSCLC)?
**A.** > 100 µM

**Q.** What about the TGI (HOP-92 NSCLC) of the same compound?
**A.** > 100 µM

**Q.** And the TGI (HT29 colon)?
**A.** > 100 µM

**Q.** And the TGI (IGROV1 ovarian)?
**A.** > 100 µM

**Q.** And the TGI (K-562 leukemia)?
**A.** > 100 µM

**Q.** What about the TGI (KM12 colon) of the same compound?
**A.** > 100 µM

**Q.** What about the TGI (KM20L2 colon) of the same compound?
**A.** > 100 µM

**Q.** And the TGI (LOX IMVI melanoma)?
**A.** > 100 µM

**Q.** And the TGI (LXFL 529 NSCLC)?
**A.** > 100 µM

**Q.** What about the TGI (M14 melanoma) of the same compound?
**A.** > 100 µM

**Q.** And the TGI (M19-MEL melanoma)?
**A.** > 100 µM

**Q.** What about the TGI (MALME-3M melanoma) of the same compound?
**A.** > 100 µM

**Q.** What about the TGI (MOLT-4 leukemia) of the same compound?
**A.** > 100 µM

**Q.** What about the TGI (NCI-H226 lung) of the same compound?
**A.** > 100 µM

**Q.** What about the TGI (NCI-H23 lung) of the same compound?
**A.** > 100 µM

**Q.** And the TGI (NCI-H460 lung)?
**A.** > 100 µM

**Q.** And the TGI (NCI-H522 lung)?
**A.** > 100 µM

**Q.** What about the TGI (OVCAR-3 ovarian) of the same compound?
**A.** > 100 µM

**Q.** What about the TGI (OVCAR-4 ovarian) of the same compound?
**A.** > 100 µM

**Q.** And the TGI (OVCAR-5 ovarian)?
**A.** > 100 µM

**Q.** And the TGI (OVCAR-8 ovarian)?
**A.** > 100 µM

**Q.** What about the TGI (RXF 393 renal) of the same compound?
**A.** > 100 µM

**Q.** And the TGI (RXF-631 renal)?
**A.** > 100 µM

**Q.** And the TGI (SF-268 CNS)?
**A.** > 100 µM

**Q.** What about the TGI (SF-295 CNS) of the same compound?
**A.** > 100 µM

**Q.** What about the TGI (SF-539 CNS) of the same compound?
**A.** > 100 µM

**Q.** And the TGI (SK-MEL-2 melanoma)?
**A.** > 100 µM

**Q.** What about the TGI (SK-MEL-28 melanoma) of the same compound?
**A.** > 100 µM

**Q.** What about the TGI (SK-MEL-5 melanoma) of the same compound?
**A.** > 100 µM

**Q.** And the TGI (SK-OV-3 ovarian)?
**A.** > 100 µM

**Q.** And the TGI (SN12C renal)?
**A.** > 100 µM

**Q.** What about the TGI (SNB-19 CNS) of the same compound?
**A.** > 100 µM

**Q.** What about the TGI (SNB-75 CNS) of the same compound?
**A.** > 100 µM

**Q.** And the TGI (SNB-78 CNS)?
**A.** > 100 µM

**Q.** And the TGI (SR leukemia)?
**A.** > 100 µM

**Q.** And the TGI (SW-620 colon)?
**A.** > 100 µM

**Q.** What about the TGI (TK-10 renal) of the same compound?
**A.** > 100 µM

**Q.** And the TGI (U251 CNS)?
**A.** > 100 µM

**Q.** What about the TGI (UACC-257 melanoma) of the same compound?
**A.** > 100 µM

**Q.** And the TGI (UACC-62 melanoma)?
**A.** > 100 µM

**Q.** And the TGI (UO-31 renal)?
**A.** > 100 µM

**Q.** How did the TGI (786-0 renal) turn out when `O=C(/C(=C\c1ccccc1)CN1CCOCC1)c1ccc(Br)cc1` was run?
**A.** 3.13 µM

**Q.** And the TGI (A498 renal)?
**A.** 12.3 µM

**Q.** And the TGI (A549 NSCLC)?
**A.** 17 µM

**Q.** What about the TGI (ACHN renal) of the same compound?
**A.** 3.42 µM

**Q.** What about the TGI (CAKI-1 renal) of the same compound?
**A.** 3.95 µM

**Q.** What about the TGI (CCRF-CEM leukemia) of the same compound?
**A.** 11.1 µM

**Q.** What about the TGI (COLO 205 colon) of the same compound?
**A.** 7.71 µM

**Q.** And the TGI (DLD-1 colon)?
**A.** 3.13 µM

**Q.** What about the TGI (DMS 114 small cell lung) of the same compound?
**A.** 4.5 µM

**Q.** And the TGI (DMS 273 small cell lung)?
**A.** 6.47 µM

**Q.** What about the TGI (EKVX NSCLC) of the same compound?
**A.** 9.47 µM

**Q.** And the TGI (HCC-2998 colon)?
**A.** 29.6 µM

**Q.** What about the TGI (HCT-116 colon) of the same compound?
**A.** 3.2 µM

**Q.** And the TGI (HCT-15 colon)?
**A.** 4.22 µM

**Q.** And the TGI (HL-60(TB) leukemia)?
**A.** 4.48 µM

**Q.** What about the TGI (HOP-18 NSCLC) of the same compound?
**A.** 3.85 µM

**Q.** And the TGI (HOP-62 NSCLC)?
**A.** 13.1 µM

**Q.** And the TGI (HOP-92 NSCLC)?
**A.** 10.8 µM

**Q.** What about the TGI (HT29 colon) of the same compound?
**A.** 4.56 µM

**Q.** What about the TGI (IGROV1 ovarian) of the same compound?
**A.** 9.32 µM

**Q.** And the TGI (K-562 leukemia)?
**A.** 15.9 µM

**Q.** And the TGI (KM12 colon)?
**A.** 3.74 µM

**Q.** And the TGI (KM20L2 colon)?
**A.** 7.12 µM

**Q.** What about the TGI (LOX IMVI melanoma) of the same compound?
**A.** 3.22 µM

**Q.** What about the TGI (LXFL 529 NSCLC) of the same compound?
**A.** 4.67 µM

**Q.** And the TGI (M14 melanoma)?
**A.** 3.27 µM

**Q.** What about the TGI (M19-MEL melanoma) of the same compound?
**A.** 3.43 µM

**Q.** What about the TGI (MALME-3M melanoma) of the same compound?
**A.** 3.31 µM

**Q.** And the TGI (MOLT-4 leukemia)?
**A.** 19 µM

**Q.** And the TGI (NCI-H226 lung)?
**A.** 12.7 µM

**Q.** And the TGI (NCI-H23 lung)?
**A.** 8.48 µM

**Q.** What about the TGI (NCI-H460 lung) of the same compound?
**A.** 8.79 µM

**Q.** And the TGI (NCI-H522 lung)?
**A.** 2.59 µM

**Q.** What about the TGI (OVCAR-3 ovarian) of the same compound?
**A.** 6.93 µM

**Q.** And the TGI (OVCAR-4 ovarian)?
**A.** 8.11 µM

**Q.** And the TGI (OVCAR-5 ovarian)?
**A.** 9.14 µM

**Q.** What about the TGI (OVCAR-8 ovarian) of the same compound?
**A.** 3.34 µM

**Q.** And the TGI (RPMI-8226 leukemia)?
**A.** 10.7 µM

**Q.** And the TGI (RXF 393 renal)?
**A.** 5.99 µM

**Q.** What about the TGI (SF-268 CNS) of the same compound?
**A.** 9.9 µM

**Q.** What about the TGI (SF-295 CNS) of the same compound?
**A.** 15.6 µM

**Q.** And the TGI (SF-539 CNS)?
**A.** 5.9 µM

**Q.** What about the TGI (SK-MEL-2 melanoma) of the same compound?
**A.** 3.74 µM

**Q.** What about the TGI (SK-MEL-28 melanoma) of the same compound?
**A.** 3.85 µM

**Q.** And the TGI (SK-MEL-5 melanoma)?
**A.** 4.08 µM

**Q.** What about the TGI (SK-OV-3 ovarian) of the same compound?
**A.** 11.2 µM

**Q.** What about the TGI (SN12C renal) of the same compound?
**A.** 4.35 µM

**Q.** And the TGI (SNB-19 CNS)?
**A.** 12.7 µM

**Q.** And the TGI (SNB-75 CNS)?
**A.** 24.9 µM

**Q.** What about the TGI (SNB-78 CNS) of the same compound?
**A.** 20.6 µM

**Q.** What about the TGI (SR leukemia) of the same compound?
**A.** 17.4 µM

**Q.** And the TGI (SW-620 colon)?
**A.** 2.72 µM

**Q.** What about the TGI (TK-10 renal) of the same compound?
**A.** 12.2 µM

**Q.** And the TGI (U251 CNS)?
**A.** 6.34 µM

**Q.** What about the TGI (UACC-257 melanoma) of the same compound?
**A.** 8.93 µM

**Q.** What about the TGI (UACC-62 melanoma) of the same compound?
**A.** 2.98 µM

**Q.** What about the TGI (UO-31 renal) of the same compound?
**A.** 3.29 µM

**Q.** And the TGI (XF 498 CNS)?
**A.** 9.72 µM
